The target in the assay is D(2) dopamine receptor (Mus musculus, UniProt P61168).

In general, Ki refers to a measure of affinity in units of concentration, obtained from inhibition or displacement. Higher therefore signals lower affinity.

Sequence of D(2) dopamine receptor (P61168 whole entry): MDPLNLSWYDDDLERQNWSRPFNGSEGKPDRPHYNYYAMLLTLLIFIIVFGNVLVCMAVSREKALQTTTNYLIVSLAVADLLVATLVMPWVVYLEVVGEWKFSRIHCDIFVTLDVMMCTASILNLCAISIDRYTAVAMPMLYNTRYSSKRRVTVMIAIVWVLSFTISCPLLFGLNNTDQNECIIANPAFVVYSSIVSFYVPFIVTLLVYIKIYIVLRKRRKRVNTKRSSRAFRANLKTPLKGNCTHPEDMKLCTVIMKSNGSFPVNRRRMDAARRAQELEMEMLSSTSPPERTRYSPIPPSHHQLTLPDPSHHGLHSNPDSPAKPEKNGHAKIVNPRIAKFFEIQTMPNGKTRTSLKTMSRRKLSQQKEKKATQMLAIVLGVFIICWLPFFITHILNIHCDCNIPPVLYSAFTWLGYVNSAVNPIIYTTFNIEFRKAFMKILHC

In turn, `CCN1CCCC1CNC(=O)c1cc(S(N)(=O)=O)ccc1OC` (configuration not stated) [N-[(1-ethylpyrrolidin-2-yl)methyl]-2-methoxy-5-sulfamoylbenzamide] yielded a Ki of 14.4 nM.

`CCN1CCC[C@H]1CNC(=O)c1cc(I)cc(OC)c1OC` registered a Ki of 0.05 nM. As for `CC(C)C[C@H]1C(=O)N2CCC[C@H]2[C@]2(O)O[C@](NC(=O)[C@@H]3C=C4c5cccc6[nH]c(Br)c(c56)C[C@H]4N(C)C3)(C(C)C)C(=O)N12` [Bromocriptine+ (GTP+)], the figure is 0.69 nM; as for `O=C(O)c1ccccc1C(=O)Nc1cccc2ccccc12` [NPA,(+)], 7.07 nM. Under `O=c1[nH]c2ccccc2n1C1CCN(CCCC(c2ccc(F)cc2)c2ccc(F)cc2)CC1` [1-(1-(4,4-bis(4-fluorophenyl)butyl)piperidin-4-yl)-1H-benzo[d]imidazol-2(3H)-one] stands 0.19 nM; under `OCCN1CCN(CC/C=C2/c3ccccc3Sc3ccc(C(F)(F)F)cc32)CC1` [(cis) 2-{4-[3-(2-Trifluoromethyl-thioxanthen-9-ylidene)-propyl]-piperazin-1-yl}-ethanol(Flupentixol)], 0.48 nM; under `CCCN1CCCC(c2cccc(O)c2)C1` (configuration not stated) [CAS_85976-54-1], 5620 nM.

The values above are taken from BindingDB's records for PubMed 2017157 (Medical Research Service, 1991).
